From publication PMC10245146, “CNS4 causes subtype‐specific changes in agonist efficacy and reversal potential of permeant cations in NMDA receptors” (Pharmacology Research & Perspectives, 2023)
Where “and” joins values, the source holds several entries; their conditions need not be identical. Equal values may be shown once.

What was measured:
[1] = system: GluN1/2A/2B triheteromeric (1/2AB) NMDA receptors; experiment: TEVC agonist dose-response, Xenopus oocytes expressing 1/2AB; type: cell-based; conditions: without CNS4; 100 μM glutamate constant; relative to 1 μM glycine
From the text: NMDA receptor constructs: cDNA encoding the NMDA receptor1a subunit (GluN1a) was obtained from Dr. Nakanishi (Kyoto, Japan). cDNA encoding the GluN2B (pci_sepGluN2B), originally developed in the Malinow lab,[33] was purchased from Addgene (cat# 23998), Cambridge, MA. cDNA encoding the GluN2C and GluN2D were purchased from GenScript, New Jersey, USA. Mutated GluN1, 2A and 2B cDNA constructs capable of assembling as GluN1/2A/2B triheteromeric (1/2AB) receptors[34] were obtained from Dr. Paoletti (Laboratoire de Neurobiologie, CNRS). These constructs have been previously tested for 1/2AB receptor activity of GluN1/2A receptor‐selective potentiators.[35] […] Plasmids were linearized with NotI (GluN1a and all five GluN1 mutants) or Avrll (GluN2B), or BstB1 (GluN2C and GluN2D) and transcribed in vitro with T7 (GluN1a, GluN1/2A, GluN2B, GluN2C & GluN2D), and SP6 (GluN1 mutants) RNA polymerase using the mMessage mMachine transcription kits (Invitrogen by Thermo Fisher Scientific).
Stage IV frog oocytes were obtained from Xenopus‐I, (Ann Arbor, MI, USA). NMDA receptor subunit cRNAs were suspended in nuclease free sterile water. GluN1A, GluN2B, GluN2C, GluN2D and GluN1/2A/2B cRNAs were mixed in a ratio of 1:1–3. 50 nL of the final cRNA mixture was microinjected (40–70 ng total) into the oocyte cytoplasm. Oocytes were incubated in ND‐96 solution at 18°C prior to electrophysiological recordings (2–5 days).
Electrophysiological responses were measured using a standard two‐microelectrode voltage‐clamp workstation (Warner Instruments model OC‐725C) designed to provide a fast clamp of large cells. The recording buffer contained 116 mM NaCl, 2 mM KCl, 0.3 mM BaCl2, and 5 mM HEPES, pH 7.4. Response magnitude was determined in Xenopus oocytes expressing different NMDA receptor subunits (GluN1/2A, 1/2B, 1/2C, 1/2D, and 1/2A/2B) by the steady plateau response elicited by bath application of different agonist concentrations. […] All data points were obtained from the steady state currents unless stated otherwise. Dose–response relationships were fit to an appropriate curve‐fitting equation using GraphPad Prism‐7. Non‐linear regression was used to calculate EC50, IC50, and fold change or percentage maximal response. Curves were fit using the following equations as performed in the previous studies, [37]: Y=100/1+10^LogEC50−XorY=Bottom+Top−Bottom/1+10^LogEC50−X . Statistical significance was determined at the overall alpha level 0.05, using appropriate statistical methods as described in all figure captions. Technical and biological replicates are explicitly mentioned in each figure legend, as n = X (Y). X represents technical repeats (number of traces) and Y represents biological repeats (number of oocytes or HEK293T cells studied). […]

[2] = target: 1/2A NMDA receptor; conditions: read-out: Glutamate potency EC50; cited from earlier work
[3] = target: 1/2D NMDA receptor; conditions: read-out: Glutamate potency EC50; cited from earlier work
[4] = target: T1, GluN1/2A NMDA receptors (UniProt P35439+Q12879); experiment: TEVC antagonist block of agonist-induced currents, 1/2A; type: cell-based; conditions: 100 μM glutamate and glycine, n = 7 (7)
T1 construct: expressed in transfected cells; host or cells: Xenopus oocytes (cRNA injection)
T1 sequence (Q12879 23-1464, other chains not shown): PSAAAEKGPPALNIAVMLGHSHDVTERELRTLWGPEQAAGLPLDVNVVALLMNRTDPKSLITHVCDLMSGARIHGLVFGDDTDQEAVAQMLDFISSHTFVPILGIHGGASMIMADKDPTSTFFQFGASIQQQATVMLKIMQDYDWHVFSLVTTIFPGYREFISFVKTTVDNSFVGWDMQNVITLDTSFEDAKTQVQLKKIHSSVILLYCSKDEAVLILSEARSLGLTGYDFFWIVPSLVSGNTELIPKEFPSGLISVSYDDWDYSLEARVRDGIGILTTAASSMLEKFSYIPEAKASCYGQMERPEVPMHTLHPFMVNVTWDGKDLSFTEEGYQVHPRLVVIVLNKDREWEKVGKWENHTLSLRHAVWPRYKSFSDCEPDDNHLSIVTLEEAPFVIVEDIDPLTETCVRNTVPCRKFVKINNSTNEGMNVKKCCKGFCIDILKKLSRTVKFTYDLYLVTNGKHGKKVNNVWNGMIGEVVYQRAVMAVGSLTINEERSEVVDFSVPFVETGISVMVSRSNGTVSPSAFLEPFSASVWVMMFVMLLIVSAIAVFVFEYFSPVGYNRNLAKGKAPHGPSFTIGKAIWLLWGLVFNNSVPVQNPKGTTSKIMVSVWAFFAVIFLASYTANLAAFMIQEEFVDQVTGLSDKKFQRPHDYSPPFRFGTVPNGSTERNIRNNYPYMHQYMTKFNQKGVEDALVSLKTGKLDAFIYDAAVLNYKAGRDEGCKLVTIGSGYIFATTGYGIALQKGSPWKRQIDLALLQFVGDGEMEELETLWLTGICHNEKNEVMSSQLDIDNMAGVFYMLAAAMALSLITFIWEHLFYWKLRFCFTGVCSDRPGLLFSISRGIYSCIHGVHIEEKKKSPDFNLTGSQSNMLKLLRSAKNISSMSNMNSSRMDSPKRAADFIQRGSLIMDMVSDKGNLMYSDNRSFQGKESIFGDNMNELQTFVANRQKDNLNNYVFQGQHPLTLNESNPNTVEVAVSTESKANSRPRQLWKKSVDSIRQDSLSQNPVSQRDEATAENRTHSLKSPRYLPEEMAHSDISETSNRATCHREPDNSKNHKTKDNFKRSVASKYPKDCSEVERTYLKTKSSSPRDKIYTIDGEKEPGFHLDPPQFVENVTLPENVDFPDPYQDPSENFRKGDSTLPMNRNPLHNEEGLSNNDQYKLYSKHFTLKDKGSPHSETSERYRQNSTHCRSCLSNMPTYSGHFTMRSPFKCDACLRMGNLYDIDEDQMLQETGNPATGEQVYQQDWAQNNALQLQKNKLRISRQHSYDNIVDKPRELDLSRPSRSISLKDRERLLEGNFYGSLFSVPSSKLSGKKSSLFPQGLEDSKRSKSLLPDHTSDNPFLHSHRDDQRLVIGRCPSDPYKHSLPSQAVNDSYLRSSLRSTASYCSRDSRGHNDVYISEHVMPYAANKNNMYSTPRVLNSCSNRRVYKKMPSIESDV
Procedure: (§1) Electrophysiological responses were measured using a standard two‐microelectrode voltage‐clamp workstation (Warner Instruments model OC‐725C) designed to provide a fast clamp of large cells. The recording buffer contained 116 mM NaCl, 2 mM KCl, 0.3 mM BaCl2, and 5 mM HEPES, pH 7.4. Response magnitude was determined in Xenopus oocytes expressing different NMDA receptor subunits (GluN1/2A, 1/2B, 1/2C, 1/2D, and 1/2A/2B) by the steady plateau response elicited by bath application of different agonist concentrations. […] All data points were obtained from the steady state currents unless stated otherwise. Dose–response relationships were fit to an appropriate curve‐fitting equation using GraphPad Prism‐7. Non‐linear regression was used to calculate EC50, IC50, and fold change or percentage maximal response. Curves were fit using the following equations as performed in the previous studies, [37]: Y=100/1+10^LogEC50−XorY=Bottom+Top−Bottom/1+10^LogEC50−X . Statistical significance was determined at the overall alpha level 0.05, using appropriate statistical methods as described in all figure captions. Technical and biological replicates are explicitly mentioned in each figure legend, as n = X (Y). X represents technical repeats (number of traces) and Y represents biological repeats (number of oocytes or HEK293T cells studied). […] For the data sets with nonparametric distribution, Wilcoxon signed rank test is a nonparametric test was used (Figure 1). Paired or unpaired t‐tests were for used only compare the datasets obtained with and without CNS4 dose response curves.
(§2) If CNS4 directly competes with GluN1 or GluN2 competitive antagonists or indirectly influences the activity, there should be a change in DCKA and/ or DL‐AP5 activity in blocking agonist‐induced currents.
FIGURE 4 Effect of CNS4 on competitive and uncompetitive NMDA receptor antagonists. […] A similar experiment was performed with 100 μM DL‐AP5. […] Paired student‐t test was performed to calculate the statistical significance. […] Unpaired student‐t test was performed to calculate the statistical significance. *p < .05; NS, not significant.

[5] = target: T2, GluN1/2D NMDA receptors (UniProt O15399+P35439); experiment: TEVC antagonist block of agonist-induced currents, 1/2D; type: cell-based; conditions: 100 μM glutamate and glycine
T2 construct: host or cells: Xenopus oocytes (cRNA injection)
T2 sequence (O15399 28-1336, other chains not shown): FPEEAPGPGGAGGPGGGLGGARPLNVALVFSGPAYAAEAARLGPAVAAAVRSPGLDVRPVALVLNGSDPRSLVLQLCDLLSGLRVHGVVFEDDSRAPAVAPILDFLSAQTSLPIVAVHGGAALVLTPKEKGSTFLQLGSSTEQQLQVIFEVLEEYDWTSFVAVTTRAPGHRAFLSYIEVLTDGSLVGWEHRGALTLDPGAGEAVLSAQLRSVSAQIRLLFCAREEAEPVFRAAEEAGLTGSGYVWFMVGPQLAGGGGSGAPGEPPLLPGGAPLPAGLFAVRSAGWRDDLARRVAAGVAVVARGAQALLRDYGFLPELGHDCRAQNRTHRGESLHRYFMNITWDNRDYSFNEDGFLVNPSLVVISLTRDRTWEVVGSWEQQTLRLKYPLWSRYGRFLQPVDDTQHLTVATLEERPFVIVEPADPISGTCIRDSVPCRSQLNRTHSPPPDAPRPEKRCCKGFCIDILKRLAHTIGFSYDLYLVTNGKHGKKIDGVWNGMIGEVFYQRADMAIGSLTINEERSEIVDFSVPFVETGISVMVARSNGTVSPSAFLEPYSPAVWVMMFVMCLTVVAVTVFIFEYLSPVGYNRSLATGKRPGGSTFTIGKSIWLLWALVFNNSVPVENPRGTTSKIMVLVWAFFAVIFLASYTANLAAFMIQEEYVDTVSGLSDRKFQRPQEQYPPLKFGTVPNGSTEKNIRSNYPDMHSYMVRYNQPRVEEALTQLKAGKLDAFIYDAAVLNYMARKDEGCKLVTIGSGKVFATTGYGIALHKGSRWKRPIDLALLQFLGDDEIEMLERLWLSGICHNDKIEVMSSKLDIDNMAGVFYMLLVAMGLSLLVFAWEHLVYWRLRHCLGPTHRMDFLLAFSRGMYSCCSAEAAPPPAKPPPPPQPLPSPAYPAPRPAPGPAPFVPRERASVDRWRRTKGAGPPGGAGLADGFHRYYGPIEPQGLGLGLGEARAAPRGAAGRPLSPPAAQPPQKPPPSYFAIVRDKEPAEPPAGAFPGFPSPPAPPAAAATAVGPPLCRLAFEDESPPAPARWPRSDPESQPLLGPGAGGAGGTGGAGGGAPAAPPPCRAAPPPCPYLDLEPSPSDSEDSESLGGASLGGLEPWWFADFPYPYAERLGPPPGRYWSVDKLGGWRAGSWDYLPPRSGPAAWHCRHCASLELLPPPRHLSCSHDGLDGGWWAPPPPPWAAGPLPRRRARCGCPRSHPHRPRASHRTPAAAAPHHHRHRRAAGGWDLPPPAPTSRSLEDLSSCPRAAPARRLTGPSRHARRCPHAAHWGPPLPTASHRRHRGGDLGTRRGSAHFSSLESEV
Procedure: as §1, §2
FIGURE 4 Effect of CNS4 on competitive and uncompetitive NMDA receptor antagonists. […] A similar experiment was performed with 100 μM DL‐AP5. […] Paired student‐t test was performed to calculate the statistical significance. […]

[6] = 100 μM antagonist plus 100 μM CNS4

SMILES: NCC(=O)O [glycine, reference compound]
- Glycine efficacy: relative fold change in current at highest glycine concentration [1]: 2.37 ± 0.23 fold

SMILES: N[C@@H](CCC(=O)O)C(=O)O [glutamate, L‐glutamate]
- EC50 [2]: ~3000 nM
- EC50 [3]: ~500 nM

SMILES: O=C(O)c1cc(=O)c2c(Cl)cc(Cl)cc2[nH]1 [DCKA]
- Block of agonist-induced currents ([4]; 100 μM antagonist alone): 97.85 ± 0.66%
- Block of agonist-induced currents [4, 6]: 98.98 ± 0.21%
- Block of agonist-induced currents [5, 6]: 62.09 ± 2.27%

SMILES: NC(CCCP(=O)(O)O)C(=O)O (stereo not drawn) [DL‐AP5]
- Block of agonist-induced currents ([4]; 100 μM antagonist alone): 39.53 ± 1.22% and ~ 39%
- Block of agonist-induced currents [4, 6]: 38.10 ± 1.28%
- Block of agonist-induced currents ([5]; 100 μM antagonist alone): 18.28 ± 10.47% and ~ 18%
- Block of agonist-induced currents [5, 6]: 5.96 ± 10.59%
